Reference: US20160235752A1, “COMPOSITIONS, METHODS OF USE, AND METHODS OF TREATMENT” (THE UNIVERSITY OF NEW ORLEANS, priority 2013, published 2016)
Converted amounts (≈) assume the structure as drawn.

Key:
[1] = system: C. albicans strain SC5314; assay: Testing for respiratory deficiencies: growth in YPD, YPG, YPE; assay type: cell-based, Candida albicans
Description: (§1) FIGS. 2A and 2B illustrates BA22 activity is enhanced when Candida growth depends upon non-fermentable carbon sources. C. albicans strain SC5314 (FIG. 2A) or C. glabrata strain CS117.93 (FIG. 2B) were grown in medium with 2% glucose (YPD), 3% glycerol (YPG) or 3% ethanol (YPE) at pH 6.5, in dose response experiments with BA22. After 24 hours incubation at 30° C., growth was measured by OD600nm. Growth at each concentration of BA22 is shown as % growth relative to the minus drug (DMSO) control. Data shown is representative of two repeat experiments.
(§2) Considering the significant growth inhibition and lack of overall lack of cytotoxicity of many of the phenylhydrazones, we further explored potential mechanisms of action using the compound BA22 as a representative drug. We initially observed that in the presence of BA22, C. albicans formed small colonies similar to respiration deficient ‘petite’ mutants previously described for Saccharomyces. […] We therefore determined if BA22 affected the ability of C. albicans or C. glabrata to use glycerol or ethanol as carbon sources. […]
(§3) Respiratory deficiencies were examined using YPD (2% glucose), YPE (3% ethanol), or YPG (3% glycerol)^31. […] After 24 and 48 hours incubation at 30° C., growth was quantified by measuring OD600nm using a BioTek plate reader. Growth at each BA concentration was then expressed as % growth vs. the DMSO control of the same medium.

[2] = system: Candida glabrata (ATCC no. 48435); assay: MIC determination by broth microdilution (NCCLS), visual scoring; assay type: cell-based; settings: for MIC80: Nakaseomyces glabratus, ATCC48435, read-out: MIC80 C. glabrata
[3] = system: Candida albicans (ATCC no. 10231); assay: as above; assay type: cell-based; settings: for MIC80: Candida albicans, ATCC10231, read-out: MIC80 C. albicans
Method in brief: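 NCCLS broth microdilution in RPMI 1640 with 10 mM HEPES, final compound 0.5–128 μg/mL, DMSO ≤1%. Inoculum from 0.5 McFarland stock diluted 1:50; incubated 35 °C for 48–72 h. MIC scored visually as lowest concentration giving ~80% growth reduction versus drug-free wells.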

C. albicans = assay: Colony formation on agar plates enriched with BA22; assay type: cell-based, Candida albicans; settings: agar plates enriched with a range of BA22 concentrations; data not shown
From the text: Considering the significant growth inhibition and lack of overall lack of cytotoxicity of many of the phenylhydrazones, we further explored potential mechanisms of action using the compound BA22 as a representative drug. We initially observed that in the presence of BA22, C. albicans formed small colonies similar to respiration deficient ‘petite’ mutants previously described for Saccharomyces. […] This phenotype somewhat resembles that of respiration deficient ‘petite’ mutants, which are unable to utilize non-fermentable carbon sources such as glycerol and ethanol^30. We therefore determined if BA22 affected the ability of C. albicans or C. glabrata to use glycerol or ethanol as carbon sources. The concentrations of BA22 required to inhibit the growth of either fungi were much lower when glycerol or ethanol is provided as a carbon source versus glucose (FIG. 2). […] Growth inhibition occurred at higher BA22 concentrations in glucose medium, possibly indicating an additional secondary mechanism.

[4] = system: C. glabrata strain CS117.93; assay: Testing for respiratory deficiencies: growth in YPD, YPG, YPE; assay type: cell-based, Candida glabrata
Description: as §1, §2, §3

[5] = system: Vero cells (African green monkey kidney cells-ATCC no. CRL-1651); assay: In vitro mammalian cell toxicity (Promega CellTiter 96, MTT); assay type: cell-based; settings: cells from the kidney origin; 24 hours; concentration not given
Description: Finally, in vitro mammalian cell toxicity studies were done using both mammalian kidney cells and human liver cells (Vero (kidney) cells-ATCC no. CRL-1651 and Hep G2 (liver) ATCC no. HB-8065) on all derivatives that had antifungal activity of less than 8 μg/mL. Cytotoxicity studies were performed in accordance with Promega CellTiter 96 Non-RadioactivCell Proliferation Assay (cat # G4000). The data is presented as the percent cells that remain viable, compared to the negative control, which was set to 100%. BA22, BA23 and BA73 had minimal toxicity in the kidney cells, with over 80% cells viable even at a concentration 10 times higher than the MIC (Table 7).
Cytotoxicity was determined using non-cancerous Vero cells (African green monkey kidney cells-ATCC no. CRL-1651) and Hep G2 (liver) (ATCC no. HB-8065) cells in accordance with Promega CellTiter 96 Non-RadioactivCell Proliferation Assay (cat # G4000). Cells were grown for 24 h at 37° C. and 5% CO2 in a 96-well culture plate. All compounds with MIC≦8 μg/ml were further screened in the MTT assays using both cell types. Compounds that fit these criteria were diluted in media to the testing dilution amounts: the MIC concentration (shown in respective tables; 5×MIC; 10×MIC and 100×MIC. The media used to grow cells was DMEM containing 10% FBS and 2%. Cells were incubated in the presence of the compounds for 24 hours at 37° C. and 5% CO2. Tetrazolium dye solution was added to each well and allowed to incubate for 1-4 h. Stabilization/Stop solution was added and allowed to sit at room temperature for 1 h. Formazan product was scored spectrophotometrically with an automatic plate reader set at 570 nm. 0.1% saponin was used as a positive control. 1% DMSO controls were also used since the compounds were reconstituted in DMSO.

[6] = system: Candida albicans (ATCC no. 10231) and Candida glabrata (ATCC no 48435); assay: Antifungal activity, text statements that do not say which fungus; assay type: cell-based
Description: The antifungal activity of the 2,4,6-pyrimidinetrione analogs shown in Schemes 2-6 were evaluated in vitro using Candida albicans (ATCC no. 10231) and Candida glabrata (ATCC no 48435). All assays were done in accordance with NCCLS reference documents^29. The results of these screenings are summarized in Tables 1-9 as the minimal inhibitory concentrations that inhibited more than 80% fungal growth as compared to the positive controls in 1% DMSO and RPMI media. All MIC screens were done using a visual scoring method as opposed to spectroscopic methods of analysis, due to the physical properties of many of the compounds altering their absorbance spectra relative to the positive, negative and drug controls.
None of the compounds tested over the course of these studies were soluble in water and DMSO was used to dilute each compound tested. Master stock concentrations of all tested compounds were prepared to ensure that the maximum final concentration of DMSO was 1% or less. Subsequent 2-fold serial dilutions were made using sterile water to a final concentration of 1280-5.00 μg/ml. A final 10-fold dilution of each drug was made by aliquotting 0.1 mL of each drug dilution into 0.9 mL of fungal suspension in RPMI 1640 media with 10 mM HEPES buffer added (see methodology below), giving final concentrations tested in the range of 128-0.5 μg/ml.
Antifungal susceptibility studies and minimal inhibitory concentrations (MIC) values for Candida albicans (ATCC no. 10231) and Candida glabrata (ATCC no. 48435) were determined by the broth microdilution technique in accordance with NCCLS reference documents. Microdilution panels ranged from 0.5 to 128 μg/mL. All organisms were subcultured on Sabouraud agar and passaged to ensure purity and viability. The initiating inocula were prepared by picking 5-7 isolated colonies ˜1 mm in diameter from freshly prepared YM agar plates. […] Growth was scored visually. […]

[7] = YPG 3% glycerol or YPE 3% ethanol versus YPD 2% glucose, pH 6.5, 30° C., OD600nm
[8] = Table 7, Phenylhydrazones of 5-Acylpyrimidinetriones
[9] = Table 5, Schiff Bases of 5-acylpyrimidinetriones

| Structure (SMILES) | MIC80 [2] | MIC80 [3] | reduction in cell viability [5] | inhibition of fungal growth (in words) [6] | MIC80 C. glabrata [2, 9] | also measured |
| --- | --- | --- | --- | --- | --- | --- |
| O=C1NC(=O)C(/C=N/Nc2ccc([N+](=O)[O-])cc2)C(=O)N1 [BA22, 5-{(E)-[2-(4-nitrophenyl)hydrazinylidene]methyl}pyrimidine-2,4,6-trione] | 1 µg/mL (≈ 3.43 µM) | 2 µg/mL (≈ 6.87 µM) |  |  |  | activity when Candida growth depends upon non-fermentable carbon sources ([1]; FIG. 2A, 24 hours, 30° C., % growth relative to DMSO control): enhanced; concentrations of BA22 required to inhibit the growth, glycerol or ethanol versus glucose [1, 7]: much lower; C. albicans colony formation (C. albicans): significantly delayed in a dose dependent manner, eventually forming small colonies; activity when Candida growth depends upon non-fermentable carbon sources ([4]; FIG. 2B, 24 hours, 30° C., % growth relative to DMSO control): enhanced; concentrations of BA22 required to inhibit the growth, glycerol or ethanol versus glucose [4, 7]: much lower |
| C/C(=N\Nc1ccc([N+](=O)[O-])cc1)C1C(=O)NC(=O)NC1=O [BA25, 5-{(1E)-1-[2-(4-Nitrophenyl)hydrazinylidene]ethyl}pyrimidine-2,4,6-trione] | 2 µg/mL (≈ 6.55 µM) | 2 µg/mL (≈ 6.55 µM) | ~35% |  |  |  |
| CC(=NNc1ccc([N+](=O)[O-])cc1)C1C(=O)NC(=O)N(c2ccccc2)C1=O (centres unmarked) [BA28] |  |  |  | greatly reduced inhibition |  | MIC80 C. glabrata [2, 8]: 16 µg/mL (≈ 42 µM); MIC80 C. albicans [3, 8]: 31.5 µg/mL (≈ 82.6 µM) |
| C/C(=N\Nc1ccccc1)C1C(=O)N(C)C(=O)N(C)C1=O [BA78, 1,3-dimethyl-5-[(1E)-1-(2-phenylhydrazinylidene)ethyl]pyrimidine-2,4,6-trione] | 2 µg/mL (≈ 6.94 µM) | 2 µg/mL (≈ 6.94 µM) | ~35% |  |  |  |
| CN1C(=O)C(C=Nc2ccccc2O)C(=O)N(C)C1=O [BA94] |  |  | ~35% |  | — (none of the 5-acyl-2,4,6-pyrimidinetriones, 5-alkylated pyrimidinetriones or the 5,5-dialkylated pyrimidinetriones showed antifungal activity through 125 μg/mL) | inhibitory activity of Candida albicans ([3]; Schiff base derivatives, Table 5): showed inhibitory activity; MIC80 C. albicans ([3]; Table 5, values marked *: compound displayed MIC with <50% inhibition): 8* μg/mL |
| CN1C(=O)C(C=Nc2cccc(O)c2)C(=O)N(C)C1=O [BA95] |  |  |  | inactive | — (none of the 5-acyl-2,4,6-pyrimidinetriones, 5-alkylated pyrimidinetriones or the 5,5-dialkylated pyrimidinetriones showed antifungal activity through 125 μg/mL) | MIC80 C. albicans [3, 9]: — (none of the 5-acyl-2,4,6-pyrimidinetriones, 5-alkylated pyrimidinetriones or the 5,5-dialkylated pyrimidinetriones showed antifungal activity through 125 μg/mL) |
| O=C1NC(=O)C(C=Nc2cccc(O)c2)C(=O)N1 [BA96] |  |  |  | inactive | — (none of the 5-acyl-2,4,6-pyrimidinetriones, 5-alkylated pyrimidinetriones or the 5,5-dialkylated pyrimidinetriones showed antifungal activity through 125 μg/mL) | MIC80 C. albicans [3, 9]: — (none of the 5-acyl-2,4,6-pyrimidinetriones, 5-alkylated pyrimidinetriones or the 5,5-dialkylated pyrimidinetriones showed antifungal activity through 125 μg/mL) |
